The values below come from patent US20250352612A1, “PHARMACEUTICAL AGENT TO PREVENT THE ADVERSE EFFECTS OF ROTAVIRUS NSP4 PROTEIN” (priority 2022, published 2025).

Assay type in all cases: cell-based
For test [1], the system named is intestinal cell line. Put plainly: Intracellular calcium amount after NSP4 and PlnA administration in intestinal cell line. Particulars: co-administration of NSP4 and PlnA-containing agent. The source says: In an exemplary embodiment of the pharmaceutical agent developed with the present invention, a pharmaceutical agent containing the Lactobacillus plantarum bacteriocin Plantaricin A (PlnA) is used to reduce the intracellular calcium content of the rotavirus NSP4 protein in the intestinal cell line. Thus, the amount of intracellular calcium increased by the NSP4 protein is reduced and, therefore, cell death and ER disruption caused by rotavirus through apoptosis is prevented by this strategy.
(In general: Calcium assays in cells follow changes in intracellular calcium, usually with a dye or a luminescent sensor.)

Test [2] deals with IL-10. Description: IL-10 protein levels after NSP4 and PlnA administration. Particulars: NSP4 and PlnA-containing agent; for increase of IL-10 protein levels compared to the control group without any application: Graph 3.
Test [3] relates to IL-10. Put plainly: IL-10 mRNA levels (gene expression) after NSP4 and PlnA administration. Particulars: NSP4 and PlnA containing agent together, Graph 5.

Take “Plantaricin A [PlnA-containing pharmaceutical agent]”: in test [1] (6th hour, Graph 1), the “decrease of amount of intracellular calcium compared to the NSP4-treated first group” value is on record as 3.75 fold and the “decrease of amount of intracellular calcium compared to the control group” value is recorded as 1.64 fold. In test [1] (12 hours, Graph 2), the “amount of intracellular calcium compared to the control group” value was “the same amount of calcium was observed in the control group” and the “decrease of amount of intracellular calcium compared to the first group administered NSP4” value is listed as 2.67 times. Also, in test [2] (3rd hour), the “increase of IL-10 protein levels compared to the control group without any application” value came out at 2 fold. The “increase of IL-10 protein levels compared to the control group without any application” value in test [2] (6th hour) turned out to be 1.43 fold. The “IL-10 protein levels compared to the control group” value in test [2] (12 hours, Graph 4) is on record as “no significant difference”. Also, in test [2] (24 hours, Graph 4), the “increase of IL-10 protein levels compared to the control group” value came to 1.13 fold. Moreover, the “increase of IL-10 mRNA level compared to the control group” value in test [3] (12th hour) amounted to 0.68 fold. In test [3], the “NSP4-induced suppression of IL-10 gene expression” value is given as “this suppression was reduced”.
